Assay results published in patent US5783575A, “Antagonists, their preparation and use” (Novo Nordisk A/S, priority 1994, dated 1998).
pIC50: −log10 of the molar value. Like-named read-outs stand apart in the source and are kept apart here. Blank lines part the entries; values can stand above or below the molecule they belong to.

Legend:
NMDA-induced responses = details: a number of preparations; cited from earlier work
mGluR1a [1] = target: T1, mGluR1a (Rattus norvegicus, UniProt P23385); details: competitive antagonist, Thomsen and Suzdak 1993; cited from earlier work
T1 construct: expressed in transfected cells; host or cells: BHK 570 (baby hamster kidney) cells
T1 sequence (P23385 19-1199): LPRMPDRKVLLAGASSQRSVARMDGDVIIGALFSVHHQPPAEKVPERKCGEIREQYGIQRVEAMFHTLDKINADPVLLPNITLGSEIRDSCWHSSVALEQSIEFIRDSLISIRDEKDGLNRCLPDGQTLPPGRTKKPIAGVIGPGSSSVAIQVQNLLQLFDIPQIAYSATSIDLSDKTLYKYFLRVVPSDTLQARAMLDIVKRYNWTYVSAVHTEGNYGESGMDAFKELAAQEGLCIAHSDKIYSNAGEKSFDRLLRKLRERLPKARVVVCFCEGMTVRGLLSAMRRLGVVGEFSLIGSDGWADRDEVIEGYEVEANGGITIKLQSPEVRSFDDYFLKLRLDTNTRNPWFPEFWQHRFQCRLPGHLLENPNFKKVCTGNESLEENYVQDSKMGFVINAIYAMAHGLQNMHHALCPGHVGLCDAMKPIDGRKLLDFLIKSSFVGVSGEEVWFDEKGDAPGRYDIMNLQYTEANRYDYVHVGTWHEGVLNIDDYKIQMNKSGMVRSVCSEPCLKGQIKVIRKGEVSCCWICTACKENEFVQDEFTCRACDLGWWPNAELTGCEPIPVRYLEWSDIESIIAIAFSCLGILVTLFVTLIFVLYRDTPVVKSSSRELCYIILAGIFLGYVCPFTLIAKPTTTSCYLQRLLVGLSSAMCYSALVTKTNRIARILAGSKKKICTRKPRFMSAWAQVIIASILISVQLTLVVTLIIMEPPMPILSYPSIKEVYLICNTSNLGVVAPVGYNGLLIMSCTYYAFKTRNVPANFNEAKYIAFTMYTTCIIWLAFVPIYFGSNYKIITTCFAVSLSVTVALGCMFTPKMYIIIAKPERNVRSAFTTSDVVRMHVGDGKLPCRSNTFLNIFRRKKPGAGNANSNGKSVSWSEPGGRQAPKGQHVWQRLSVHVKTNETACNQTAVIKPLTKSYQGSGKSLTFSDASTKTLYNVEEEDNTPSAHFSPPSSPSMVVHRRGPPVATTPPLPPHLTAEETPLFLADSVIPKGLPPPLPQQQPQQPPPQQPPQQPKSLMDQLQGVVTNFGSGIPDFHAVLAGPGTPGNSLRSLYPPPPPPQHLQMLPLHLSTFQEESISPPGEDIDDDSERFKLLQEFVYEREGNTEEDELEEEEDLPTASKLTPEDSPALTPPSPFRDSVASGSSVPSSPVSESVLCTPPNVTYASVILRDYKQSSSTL

mGluR1a [2] = target: T1, mGluR1a; details: BHK cells expressing mGluR1a, Thomsen and Suzdak 1993; cited from earlier work
[3] = test system: responses evoked by the ionotropic glutamate receptor agonist, AMPA; details: Mori-Okamoto et al. 1993; cited from earlier work
currents evoked by AMPA = details: neurones, nucleus of the Solitary tract; cited from earlier work
GABAA = details: neurones, nucleus of the Solitary tract; cited from earlier work
mGluR1a [4] = target: T1, mGluR1a; experiment: Inhibition of PI-hydrolysis in BHK 570 cells expressing mGluR1a receptors (antagonist activity vs 10 μM glutamate); type: cell-based
mGluR1a [5] = target: T1, mGluR1a; experiment: Testing for non competitiveness: mGluR1a-mediated PI-hydrolysis, glutamate dose-response with and without antagonist; type: cell-based; details: for effect on maximal response for glutamate / effect on the potency of glutamate / pharmacological profile: BHK cells expressing mGluR1a; for Emax: basal subtracted
mGluR1a [6] = target: T1, mGluR1a; experiment: [3H]Glutamate binding to mGluR1a; details: BHK cells expressing mGluR1a
Protocol: Membranes prepared from BHK cells expressing mGluR1a were prepared as described (Thomsen, C. et al. (1993), Brain Res. 619, 22-28). […] IC50 values were calculated by a non-linear regression analysis using the GraphPad-Prism program (I.S.I., Philadelphia). Inhibitory constants (Ki) were calculated from the IC50 values using the equation: […]

Bz = experiment: Affinity for Bz receptor (Table 3); type: binding
TCP = experiment: Affinity for TCP receptor (Table 3); type: binding
KAIN = experiment: Affinity for KAIN receptor (Table 3); type: binding
AMPA = experiment: Affinity for AMPA receptor (Table 3); type: binding
CNQX = experiment: Affinity for CNQX receptor (Table 3); type: binding
CPP = experiment: Affinity for CPP receptor (Table 3); type: binding
[7] = test system: metabotropic glutamate receptor at the subtypes mGluR1 and mGluR5; details: Thomsen and Suzdak 1993; cited from earlier work
mGluR1/mGluR5 = details: Mori-Okamoto et al. 1993; cited from earlier work
[8] = test system: metabotropic glutamate receptor; details: cited from earlier work
mGluR1α = details: 1 mM, BHK cells expressing mGluR1α; cited from earlier work
control BHK cells = details: 1 mM; cited from earlier work
MCAO model in mice = details: Chiamulera et al. 1992; cited from earlier work
[9] = test system: release of dopamine in the rat brain; details: Sacaan et al. 1992; cited from earlier work
nerve cell cultures = details: Koh et al. 1991; cited from earlier work
[10] = read-out: response to glutamate relative to the maximal response evoked by 300 μM glutamate, antagonist 10 μM, glutamate 0
[11] = read-out: response to glutamate relative to the maximal response evoked by 300 μM glutamate, antagonist 10 μM, glutamate 3
[12] = read-out: response to glutamate relative to the maximal response evoked by 300 μM glutamate, antagonist 10 μM, glutamate 10
[13] = read-out: response to glutamate relative to the maximal response evoked by 300 μM glutamate, antagonist 10 μM, glutamate 30
[14] = read-out: response to glutamate relative to the maximal response evoked by 300 μM glutamate, antagonist 10 μM, glutamate 100
[15] = read-out: response to glutamate relative to the maximal response evoked by 300 μM glutamate, antagonist 10 μM, glutamate 300

Structure (SMILES): N[C@@]1(C(=O)O)CC[C@@H](C(=O)O)C1 (relative stereo) [(±)-trans-ACPD]
- effect on NMDA-induced responses (NMDA-induced responses): enhanced

Structure (SMILES): NC(C(=O)O)c1ccc(C(=O)O)c(O)c1 (stereo not shown) [4-carboxy-3-hydroxyphenylglycine]
- displacement of [3H]glutamate binding (mGluR1a [1]): displaced [^3 H]glutamate binding from mGluR1a with an affinity which was similar to the functional antagonist potency
- effect on maximal response to glutamate (mGluR1a [2]): not affected
- effect on potency of glutamate to stimulate PI-hydrolysis (mGluR1a [2]): decreased

Structure (SMILES): N[C@@]1(C(=O)O)CC[C@@H](C(=O)O)C1 [(1S,3R)-ACPD]
- effect on responses evoked by AMPA [3]: suppress responses evoked by the ionotropic glutamate receptor agonist, AMPA
- effect on currents evoked by AMPA (currents evoked by AMPA): potentiated
- effect on GABAA-mediated currents (GABAA): attenuated

- pIC50 (mGluR1a [4]): 5.66
Structure (SMILES): CCOC(=O)C(C#N)=Cc1c(Cl)n(Cc2ccccc2)c2ccccc12 [Compound 1a, Ethyl 2-cyano-3-(1-benzyl-2-chloro-3-indolyl)acrylate]

- pIC50 (mGluR1a [4]): 5.00
- effect on the potency of glutamate (mGluR1a [5]): did not affect the potency of glutamate
- pharmacological profile (mGluR1a [5]): non-competitive antagonists
- Emax (mGluR1a [5]; [10]): 2%
- Emax (mGluR1a [5]; [11]): 5%
- Emax (mGluR1a [5]; [12]): 16%
- Emax (mGluR1a [5]; [13]): 53%
- Emax (mGluR1a [5]; [14]): 75%
- Emax (mGluR1a [5]; [15]): 77%
- displacement of [3H]glutamate binding (mGluR1a [6]): did not displace
Structure (SMILES): O=C(O)c1cc2c3ccccc3n(Cc3ccccc3)c2nc1N1CCOCC1 [Compound 3b, 9-Benzyl-2-morpholinopyridino[2,3-b]indole-3-carboxylic acid]
- effect on maximal response for glutamate (mGluR1a [5]): dose-dependently decreased the maximal response for glutamate

- pIC50 (mGluR1a [4]): 4.68
- receptor selectivity for mGluR1a (mGluR1a [4]; based on Table 3, criterion 5-fold more potent at mGluR1a): considered selective for mGluR1a
- pIC50 (Bz): 3.33
- pIC50 (TCP): < 3.01
- pIC50 (KAIN): 3.06
- effect on the potency of glutamate (mGluR1a [5]): did not affect the potency of glutamate
- pharmacological profile (mGluR1a [5]): non-competitive antagonists
- Emax (mGluR1a [5]; [10]): 2%
- Emax (mGluR1a [5]; [11]): 5%
- Emax (mGluR1a [5]; [12]): 35%
- Emax (mGluR1a [5]; [13]): 65%
- Emax (mGluR1a [5]; [14]): 92%
- Emax (mGluR1a [5]; [15]): 89%
- Emax (mGluR1a [5]; read-out: response to glutamate relative to the maximal response evoked by 300 μM glutamate, antagonist 30 μM, glutamate 0): 2%
- Emax (mGluR1a [5]; read-out: response to glutamate relative to the maximal response evoked by 300 μM glutamate, antagonist 30 μM, glutamate 3): 4%
- Emax (mGluR1a [5]; read-out: response to glutamate relative to the maximal response evoked by 300 μM glutamate, antagonist 30 μM, glutamate 10): 22%
- Emax (mGluR1a [5]; read-out: response to glutamate relative to the maximal response evoked by 300 μM glutamate, antagonist 30 μM, glutamate 30): 58%
- Emax (mGluR1a [5]; read-out: response to glutamate relative to the maximal response evoked by 300 μM glutamate, antagonist 30 μM, glutamate 100): 64%
- Emax (mGluR1a [5]; read-out: response to glutamate relative to the maximal response evoked by 300 μM glutamate, antagonist 30 μM, glutamate 300): 66%
- Emax (mGluR1a [5]; read-out: response to glutamate relative to the maximal response evoked by 300 μM glutamate, antagonist 100 μM, glutamate 0): 5%
- Emax (mGluR1a [5]; read-out: response to glutamate relative to the maximal response evoked by 300 μM glutamate, antagonist 100 μM, glutamate 3): 2%
- Emax (mGluR1a [5]; read-out: response to glutamate relative to the maximal response evoked by 300 μM glutamate, antagonist 100 μM, glutamate 10): 1%
- Emax (mGluR1a [5]; read-out: response to glutamate relative to the maximal response evoked by 300 μM glutamate, antagonist 100 μM, glutamate 30): 24%
- Emax (mGluR1a [5]; read-out: response to glutamate relative to the maximal response evoked by 300 μM glutamate, antagonist 100 μM, glutamate 100): 34%
- Emax (mGluR1a [5]; read-out: response to glutamate relative to the maximal response evoked by 300 μM glutamate, antagonist 100 μM, glutamate 300): 38%
- pIC50 (AMPA): < 3.01
- pIC50 (CNQX): < 3.01
- pIC50 (CPP): 3.52
- displacement of [3H]glutamate binding (mGluR1a [6]): did not displace
Structure (SMILES): O=C(O)c1cc2c3ccccc3n(Cc3ccccc3)c2s1 [Compound 8, 8-Benzylthieno[2,3-b]indole-2-carboxylic acid]
- effect on maximal response for glutamate (mGluR1a [5]): dose-dependently decreased the maximal response for glutamate

- pIC50 (mGluR1a [4]): 5.05
Structure (SMILES): c1ccc(Cn2c3ccccc3c3cc(-c4nnn[nH]4)sc32)cc1 [Compound 25, 8-Benzyl-2-(5-tetrazolyl)thieno[2,3-b]indole]

- pIC50 (mGluR1a [4]): 5.28
Structure (SMILES): Cn1c2ccccc2c2cc(C(=O)N3CCOCC3)sc21 [Compound 27, 8-Methyl-2-morpholinocarbonylthieno[2,3-b]indole]

- pIC50 (mGluR1a [4]): 4.44
Structure (SMILES): CN1CCN(C(=O)c2cc3c4ccccc4n(C)c3s2)CC1 [Compound 31, 8-Methyl-2-(4-methyl-1-piperazinylcarbonyl)thieno[2,3-b]indole]

- pIC50 (mGluR1a [4]): 5.14
Structure (SMILES): Cn1c2ccc(Cl)cc2c2cc(C(=O)O)sc21 [Compound 54, 5-Chloro-8-methylthieno[2,3-b]indole-2-carboxylic acid]

Structure (SMILES): N[C@H](C(=O)O)c1ccc(C(=O)O)c(O)c1 [Compound S-4C3HPG, S-4-carboxy-3-hydroxyphenyl glycine]
- antagonism of trans ACPD stimulated phosphoinositide hydrolysis [7]: antagonise trans ACPD stimulated phosphoinositide hydrolysis

Structure (SMILES): N[C@H](C(=O)O)c1ccc(C(=O)O)cc1 [Compound S-4CPG, S-4-carboxyphenyl glycine]
- antagonism of trans ACPD stimulated phosphoinositide hydrolysis [7]: antagonise trans ACPD stimulated phosphoinositide hydrolysis

Structure (SMILES): N[C@@H](CP(=O)(O)O)C(=O)O [L-AP3, L-2-amino-3-phosphonopropionic acid]
- antagonism of mGluR1/mGluR5 (mGluR1/mGluR5): antagonist
- activity at metabotropic receptors [8]: partial agonist

Structure (SMILES): C[C@@](N)(C(=O)O)c1ccc(C(=O)O)cc1 [S-MCPG, S-alpha-methyl-4-carboxyphenyl glycine]
- antagonism of trans ACPD stimulated phosphoinositide hydrolysis [7]: antagonise trans ACPD stimulated phosphoinositide hydrolysis

Structure (SMILES): N[C@@H](CCC(=O)O)C(=O)O [glutamate, L-glutamate]
- increase over basal PI-hydrolysis (mGluR1α): 6-8 fold

Structure (SMILES): NC(C(=O)O)c1cc(O)no1 (stereo not shown) [ibotenate]
- agonism on the metabotropic glutamate receptor [8]: non-selective agonists

Structure (SMILES): C=C(C)[C@H]1CN[C@H](C(=O)O)[C@H]1CC(=O)O [kainate]
- effect on metabotropic glutamate receptors ([8]; selective ionotropic glutamate receptor agonists): little effect

Structure (SMILES): N[C@@H](Cn1oc(=O)[nH]c1=O)C(=O)O [quisqualate]
- agonism on the metabotropic glutamate receptor [8]: non-selective agonists
- stimulation of PI-hydrolysis (control BHK cells): no stimulation
- increase over basal PI-hydrolysis (mGluR1α): 6-8 fold

Structure (SMILES): N[C@@]1(C(=O)O)CC[C@@H](C(=O)O)C1 [trans-ACPD, trans 1S,3R-1-aminocyclopentane-1,3-dicarboxylicacid]
- neuroprotection (MCAO model in mice): neuroprotective
- effect on release of dopamine [9]: increase release of dopamine
- inhibition of NMDA induced neurotoxicity (nerve cell cultures): inhibit NMDA induced neurotoxicity
